In ChEMBL document CHEMBL1140004, “2-Arylimino-5,6-dihydro-4H-1,3-thiazines as a new class of cannabinoid receptor agonists. Part 1: discovery of CB2 receptor selective compounds” (Bioorg Med Chem Lett, 2007):
Active and inactive are the calls of the source. No cut-off for these calls is given here.

What was measured:
[1] = biological target: Cannabinoid receptor 2 (Mus musculus, UniProt P47936); assay: Displacement of [3H]CP-55940 from mouse CB2 receptor
[2] = biological target: T1, Cannabinoid receptor 2 (Homo sapiens, UniProt P34972); assay: Displacement of [3H]CP-55940 from human CB2 receptor
T1 sequence (P34972 whole entry): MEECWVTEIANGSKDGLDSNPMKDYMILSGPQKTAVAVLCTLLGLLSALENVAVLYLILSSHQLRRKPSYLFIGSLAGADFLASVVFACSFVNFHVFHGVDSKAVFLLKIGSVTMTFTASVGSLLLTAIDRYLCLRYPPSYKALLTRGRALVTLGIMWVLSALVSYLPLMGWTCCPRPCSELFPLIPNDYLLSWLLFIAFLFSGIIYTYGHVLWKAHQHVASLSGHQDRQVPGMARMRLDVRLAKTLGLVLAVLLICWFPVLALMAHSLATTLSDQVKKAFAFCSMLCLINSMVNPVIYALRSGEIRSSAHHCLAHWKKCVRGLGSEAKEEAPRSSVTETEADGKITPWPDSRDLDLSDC

[3] = biological target: T2, Cannabinoid receptor 1 (Homo sapiens, UniProt P21554); assay: Agonist activity at human CB1 in CHO cells assessed as inhibition of cAMP production; type: functional, cell-based
T2 sequence (P21554 whole entry): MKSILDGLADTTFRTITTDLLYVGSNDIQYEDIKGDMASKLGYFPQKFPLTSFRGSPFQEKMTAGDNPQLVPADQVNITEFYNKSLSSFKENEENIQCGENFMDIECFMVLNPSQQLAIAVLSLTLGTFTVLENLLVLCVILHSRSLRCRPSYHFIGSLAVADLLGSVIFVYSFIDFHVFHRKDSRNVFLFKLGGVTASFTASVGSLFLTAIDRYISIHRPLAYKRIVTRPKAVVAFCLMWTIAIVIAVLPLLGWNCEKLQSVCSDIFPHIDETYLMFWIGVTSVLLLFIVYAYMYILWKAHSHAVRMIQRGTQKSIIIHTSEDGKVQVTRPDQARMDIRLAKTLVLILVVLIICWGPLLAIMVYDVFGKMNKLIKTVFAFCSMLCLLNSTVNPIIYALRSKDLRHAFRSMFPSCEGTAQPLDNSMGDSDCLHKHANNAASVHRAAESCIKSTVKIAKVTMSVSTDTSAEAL

[4] = biological target: T2, Cannabinoid receptor 1; assay: Displacement of [3H]CP-55940 from human CB1 receptor
[5] = AUC in rat at 30 mg/kg, po; type: ADME, organism-based; set-up: dose 30 mg/kg, route oral; details: plasma
[6] = tested on: Mus musculus; assay: Analgesic activity in sc dosed ICR mouse right hind paw in presence of SR-144528 assessed as inhibition of formalin induced licking; type: functional, organism-based
[7] = Bioavailability in rat at 30 mg/kg, po; type: ADME, organism-based; details: in vivo
[8] = Clearance in rat at 2 mg/kg, iv or 30 mg/kg, po; type: ADME, organism-based; details: in vivo
[9] = Half life in rat at 2 mg/kg, iv or 30 mg/kg, po; type: ADME, organism-based; details: in vivo
[10] = biological target: T1, Cannabinoid receptor 2; assay: Agonist activity at human CB2 in CHO cells assessed as inhibition of cAMP production; type: functional, cell-based
[11] = biological target: Cannabinoid receptor 1 (Mus musculus, UniProt P47746); assay: Displacement of [3H]CP-55940 from mouse CB1 receptor
Chain of Cannabinoid receptor 1 (Mus musculus, UniProt P47746) (P47746 whole entry): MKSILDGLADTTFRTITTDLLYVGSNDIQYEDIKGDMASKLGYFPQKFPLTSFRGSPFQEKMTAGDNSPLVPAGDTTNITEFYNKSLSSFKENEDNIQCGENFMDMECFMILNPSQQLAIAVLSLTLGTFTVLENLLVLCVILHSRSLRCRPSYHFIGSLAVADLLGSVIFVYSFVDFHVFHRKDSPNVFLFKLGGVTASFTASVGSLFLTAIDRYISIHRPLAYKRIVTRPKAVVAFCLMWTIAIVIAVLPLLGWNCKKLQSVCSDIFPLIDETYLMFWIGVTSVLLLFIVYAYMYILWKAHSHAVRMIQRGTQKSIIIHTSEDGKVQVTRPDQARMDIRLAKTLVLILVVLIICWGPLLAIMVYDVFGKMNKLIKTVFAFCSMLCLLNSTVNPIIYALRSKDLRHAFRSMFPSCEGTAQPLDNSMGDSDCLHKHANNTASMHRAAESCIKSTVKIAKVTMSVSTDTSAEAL

[12] = tested on: Mus musculus; assay: Analgesic activity in sc dosed ICR mouse right hind paw of assessed as formalin induced licking; type: functional, organism-based

Chain of Cannabinoid receptor 2 (Mus musculus, UniProt P47936) (P47936 whole entry): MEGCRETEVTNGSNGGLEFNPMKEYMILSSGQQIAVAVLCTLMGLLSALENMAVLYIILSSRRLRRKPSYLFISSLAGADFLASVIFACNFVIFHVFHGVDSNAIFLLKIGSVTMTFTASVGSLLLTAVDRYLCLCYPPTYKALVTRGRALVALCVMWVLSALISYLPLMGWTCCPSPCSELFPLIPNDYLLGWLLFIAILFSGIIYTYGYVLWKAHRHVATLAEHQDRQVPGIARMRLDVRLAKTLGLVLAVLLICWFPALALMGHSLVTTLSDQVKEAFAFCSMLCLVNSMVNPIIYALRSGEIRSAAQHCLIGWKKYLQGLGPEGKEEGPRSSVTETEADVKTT

Cc1c(C(=O)c2cccc3ccccc23)c2cccc3c2n1[C@H](CN1CCOCC1)CO3 [WIN-552122]
Ki [1]: 6 nM

CCCc1ccccc1/N=C1\SCC(C)(C)CN1C(=S)SC
Ki [2]: 57 nM

CSC(=S)N1/C(=N/c2ccccc2C(C)C)SCCC1C (stereo unspecified)
Ki [2]: > 5000 nM

CC(C)c1ccccc1/N=C1/NCC(C)(C)CS1
Ki [2]: > 5000 nM

CSC(=S)N1CC(C)(C)CS/C1=N\c1ccccc1C(C)C
IC50 [3]: > 5000 nM
Ki [4]: > 5000 nM
AUC [5]: 1100 ng·h/mL
Activity [6]: inactive
bioavailability [7]: 18%
clearance [8]: 83.3 mL/min/kg
Ki [1]: 9 nM
half-life [9]: 36 min
IC50 [10]: 6.1 nM
Ki [2]: 9 nM
Ki [11]: 2020 nM
Activity [12]: Active

CSC(=S)N1CC(C)(C)CS/C1=N\c1ccccc1C
Ki [2]: 202 nM

CCOc1ccccc1/N=C1\SCC(C)(C)CN1C(=S)SC
Ki [2]: 84 nM

CSC(=S)N1CCCS/C1=N\c1ccccc1C(C)C
Ki [2]: 1580 nM

CSC(=S)N1CC(C)(C)CS/C1=N\c1ccccc1F
Ki [2]: 252 nM

CSC(=S)N1CCC(C)S/C1=N\c1ccccc1C(C)C (stereo unspecified)
Ki [2]: > 5000 nM

CCc1ccccc1/N=C1\SCC(C)(C)CN1C(=S)SC
Ki [2]: 54 nM

CC(C)SC(=S)N1CC(C)(C)CS/C1=N\c1ccccc1C(C)C
Ki [2]: 275 nM

CCSC(=O)N1CC(C)(C)CS/C1=N\c1ccccc1C(C)C
Ki [2]: 48 nM

CCNC(=S)N1CC(C)(C)CS/C1=N\c1ccccc1C(C)C
Ki [2]: > 5000 nM

CCC(=O)N1CC(C)(C)CS/C1=N\c1ccccc1C(C)C
Ki [2]: 2090 nM

CSC(=S)N1CC(C)(C)CS/C1=N\c1ccccc1C(C)(C)C
Ki [2]: 313 nM

COc1ccccc1/N=C1\SCC(C)(C)CN1C(=S)SC
Ki [2]: 18 nM

CSC(=S)N1CC(C)(C)CS/C1=N\c1ccccc1Cl
Ki [2]: 722 nM

CCCSC(=S)N1CC(C)(C)CS/C1=N\c1ccccc1C(C)C
Ki [2]: 119 nM

CCNC(=O)N1CC(C)(C)CS/C1=N\c1ccccc1C(C)C
Ki [2]: > 5000 nM

CSC(=S)N1CC(C)(C)CS/C1=N\c1cccc(C(C)C)c1
Ki [2]: 33 nM

CCOC(=O)N1CC(C)(C)CS/C1=N\c1ccccc1C(C)C
IC50 [3]: > 5000 nM
Ki [4]: > 5000 nM
Ki [1]: 187 nM
IC50 [10]: 322 nM
Ki [2]: 428 nM
Ki [11]: > 5000 nM

CC(C)c1ccccc1/N=C1\SCC(C)(C)CN1Cc1ccccc1
Ki [2]: 1360 nM

CSC(=S)N1CC(C)(C)CS/C1=N\c1ccccc1C(F)(F)F
Ki [2]: 141 nM

CSC(=S)N1CC(C)(C)CS/C1=N\c1ccc(C(C)C)cc1
Ki [2]: 22 nM

CCOC(=S)N1CC(C)(C)CS/C1=N\c1ccccc1C(C)C
Ki [2]: 230 nM

CSC(=S)N1CC(C)(C)CS/C1=N\c1c(C)cccc1C
Ki [2]: > 5000 nM

CCSC(=S)N1CC(C)(C)CS/C1=N\c1ccccc1C(C)C
Ki [2]: 35 nM

CSC(=S)N1CC(C)(C)CS/C1=N\c1ccccc1
Ki [2]: 316 nM

CCCN1CC(C)(C)CS/C1=N\c1ccccc1C(C)C
Ki [2]: 915 nM

CSC(=S)N1CC(C)(C)CS/C1=N\c1ccccc1-c1ccccc1
Ki [2]: 989 nM

CSC(=S)N1CC(C)CS/C1=N\c1ccccc1C(C)C (stereo unspecified)
Ki [2]: 98 nM

CCN1CC(C)(C)CS/C1=N\c1ccccc1C(C)C
Ki [2]: 4880 nM

CSC(=S)N1CC(C)(C)CS/C1=N\c1ccccc1Br
Ki [2]: 371 nM

CSC(=S)N1CC(C)(C)CS/C1=N\c1ccccc1Oc1ccccc1
Ki [2]: 2920 nM
